The text below walks through data of PubChem BioAssay (NCI).

What is called TGI is the concentration giving total growth inhibition. The term GI50 denotes the concentration that inhibits growth by half.

What all share (test): DTP human tumour cell line panel, 48 h
Experiment [1] concerns RPMI-8226 leukemia.
In experiment [2] the test system is OVCAR-4 ovarian.
For experiment [3], the system named is SK-MEL-28 melanoma.
Experiment [4] has as its system OVCAR-5 ovarian.
Experiment [5] has as its system LOX IMVI melanoma.
In experiment [6] the test system is SK-MEL-5 melanoma.
For experiment [7], the system named is NCI-H226 lung.
The subject of experiment [8] is HCT-116 colon.
In experiment [9] the test system is K-562 leukemia.
The test system of experiment [10] is KM12 colon.
Experiment [11] deals with SNB-75 CNS.
Experiment [12] deals with M14 melanoma.
Experiment [13] concerns CAKI-1 renal.
The test system of experiment [14] is SK-OV-3 ovarian.

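Five concentrations, 48 hours, 96-well plates. GI50: concentration for 50% inhibition of growth. TGI: concentration producing complete growth inhibition.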

As for `CC(C)=CCOc1ccc(-c2coc3cc4c(c(O)c3c2=O)C=CC(C)(C)O4)cc1`, the TGI in [1] is above 100 µM; in [2], 80 µM; in experiment [3], above 100 µM; in experiment [4] it was above 100 µM; in [5] it was above 100 µM; in [6], 0.932 µM. For the same molecule, the TGI in [7], in experiment [8], in experiment [9] and in experiment [10] was above 100 µM each time.
As to `CCOC(=O)c1ccn2c(c1)c(C#N)c1nc3ccccc3nc12`, the TGI in experiment [11], in experiment [1], in experiment [2], in experiment [3], in experiment [4] and in experiment [5] was above 100 µM throughout. The TGI in experiment [6], in [8], in [9], in experiment [10], in experiment [12] and in [13] was above 100 µM throughout. Besides, the TGI in experiment [14] is above 100 µM.
`CNC(=O)NCCN1N=C(C)/C(=C\c2ccccc2)CC1=O`: the TGI in [11], in [1], in experiment [2], in experiment [3], in experiment [4] and in experiment [5] was above 100 µM in each case. The TGI in experiment [6], in experiment [7], in [8], in experiment [9], in experiment [10] and in experiment [12] was above 100 µM each time. Also, the TGI in experiment [13] and in [14] was above 100 µM throughout.
Consider `CC(O)C1OC(n2ccc(=O)[nH]c2=O)CC1n1cncn1` (stereo unspecified), for which, in experiment [11], the GI50 was above 100 µM. The TGI in [11], in [1], in experiment [2], in [3], in experiment [4] and in [5] was above 100 µM in each case. The TGI in [6], in experiment [7], in experiment [8], in experiment [9], in [10] and in [12] was above 100 µM throughout. In addition, the TGI in experiment [13] and in [14] was above 100 µM in each case.
For the molecule `CCOC(=O)CCn1cnc(N)n1`, the TGI in [11], in experiment [1], in [2], in experiment [3], in [4] and in experiment [5] was above 100 µM in each case. In addition, the TGI in experiment [6], in [7], in experiment [8], in experiment [9], in [10] and in experiment [12] was above 100 µM in each case. The TGI in experiment [13] and in experiment [14] was above 100 µM each time.
Turning to `CC(=O)OCC1OC(n2c(O)c(N=NC(N)=S)c3ccc([N+](=O)[O-])cc32)C(OC(C)=O)C1OC(C)=O` (stereo unspecified), the TGI in experiment [11] was 82.8 µM; in [1] it was above 100 µM; in experiment [2] it was 43.3 µM; in experiment [3], above 100 µM; in experiment [4] it was above 100 µM; in [5], 43.1 µM. Moreover, the TGI in experiment [6] is above 100 µM; in experiment [7], 84.7 µM; in [8] it was 29.5 µM; in experiment [9] it was above 100 µM; in experiment [10], above 100 µM; in experiment [12], above 100 µM. Moreover, the TGI in [13] and in experiment [14] was above 100 µM in each case.
On to `COC1(C)CNCC(C)(C)NC(=O)C(C)(OC)CNCC(C)(C)NC1=O` (stereo unspecified), for which the TGI in experiment [11], in experiment [1], in experiment [2], in experiment [3], in [4] and in [5] was above 100 µM in each case. The TGI in experiment [6], in experiment [7], in experiment [8], in experiment [9], in experiment [10] and in [12] was above 100 µM throughout. Moreover, the TGI in [13] and in experiment [14] was above 100 µM each time.
With `CCOC(OC1=C(C#N)CCCC1)C(CC)[Se]c1ccccc1[N+](=O)[O-]` (stereo unspecified), the TGI in experiment [11] came to 49.5 µM; in [1] it was 43.4 µM; in [2], 35.1 µM; in [3], 89.9 µM; in experiment [4], 66.8 µM; in experiment [5], 30.9 µM. Also, the TGI is 28.7 µM in experiment [6]; 43 µM in experiment [7]; 36.8 µM in experiment [8]; above 100 µM in experiment [9]; 43.1 µM in experiment [10]; 37.8 µM in [12]. The TGI in experiment [13] and in experiment [14] was above 100 µM each time.
`C=CCC1C(=O)CC2(C)C(CC=C)C(=O)CC12C` (stereo unspecified): the TGI in experiment [11], in [1], in [2], in [3], in experiment [4] and in [5] was above 100 µM each time. For the same molecule, the TGI in [6], in experiment [7], in experiment [8], in experiment [9], in [10] and in experiment [12] was above 100 µM each time. Also, the TGI in experiment [13] and in [14] was above 100 µM throughout.
Take `COC(=O)/C(=N\N)C(C(=O)C(=O)Nc1nc(=S)[nH][nH]1)c1nc2ccc([N+](=O)[O-])cc2[nH]c1=O` (stereo unspecified): the concentration for total growth inhibition (TGI) in [11], in experiment [1], in experiment [2], in experiment [3], in experiment [4] and in experiment [5] was above 100 µM each time. Besides, the TGI in experiment [6], in [7], in experiment [8], in [9], in experiment [10] and in experiment [12] was above 100 µM throughout. For the same molecule, the TGI in experiment [13] and in experiment [14] was above 100 µM in each case.
